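A five-concentration, 48-hour dose response in 96-well plates underlies each endpoint, interpolated linearly between surrounding concentrations. The concentration for 50% growth inhibition is given as GI50.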 Activity calls are given as the source filed them. Rule as the data show it: active = GI50 up to about 1.1 µM and inactive = higher.
Legend:
Test in all cases: growth of human tumour cells (NCI), 48 h
T47D = tested on: T47D
MCF7 = tested on: MCF7
HCT-116 = tested on: HCT-116
CCRF-CEM = tested on: CCRF-CEM
UO-31 = tested on: UO-31
MDA-N = tested on: MDA-N
TK-10 = tested on: TK-10
HL-60 = tested on: HL-60
HT-29 = tested on: HT-29
M14 = tested on: M14
SW-620 = tested on: SW-620
SR = tested on: SR
786-0 = tested on: 786-0
A549 = tested on: A549
SN12C = tested on: SN12C
Malme-3M = tested on: Malme-3M
COLO 205 = tested on: COLO 205
SF-539 = tested on: SF-539
K562 = tested on: K562
SK-MEL-2 = tested on: SK-MEL-2

Row | Structure (SMILES) | GI50 (T47D) | GI50 (MCF7) | GI50 (HCT-116) | GI50 (CCRF-CEM) | GI50 (UO-31) | GI50 (MDA-N) | GI50 (TK-10) | GI50 (HL-60) | GI50 (HT-29) | GI50 (M14) | GI50 (SW-620) | GI50 (SR) | GI50 (786-0) | GI50 (A549) | GI50 (SN12C) | GI50 (Malme-3M) | GI50 (COLO 205) | GI50 (SF-539) | GI50 (K562) | GI50 (SK-MEL-2)
1 | Nc1nnnn1NC(=O)NCCCl | > 10 µM (inactive) | > 10 µM (inactive) | > 10 µM (inactive) | > 10 µM (inactive) | > 10 µM (inactive) | > 10 µM (inactive) | > 10 µM (inactive) | > 10 µM (inactive) | > 10 µM (inactive) | > 10 µM (inactive) | > 10 µM (inactive) | > 10 µM (inactive) | > 10 µM (inactive) | > 10 µM (inactive) | > 10 µM (inactive) | > 10 µM (inactive) | > 10 µM (inactive) | > 10 µM (inactive) | > 10 µM (inactive) | > 10 µM (inactive)
2 | COc1ccc(C2SC(=N)Nc3c2c(C)nn3C(=O)c2ccccc2O)cc1OC (stereo unspecified) | 3.18 µM (inactive) | 3.3 µM (inactive) | 2.37 µM (inactive) | 4.93 µM (inactive) | 4.61 µM (inactive) | 6.08 µM (inactive) | > 10 µM (inactive) | 2.16 µM (inactive) | > 10 µM (inactive) | 7.11 µM (inactive) | > 10 µM (inactive) | 4.75 µM (inactive) | 7.1 µM (inactive) | 3.4 µM (inactive) | 5.98 µM (inactive) | 6.3 µM (inactive) | > 10 µM (inactive) | 2.84 µM (inactive) | 3.53 µM (inactive) | 4.26 µM (inactive)
3 | N=C(N)NC(=N)Nc1ccc(S(=O)(=O)O)cc1 | > 100 µM (inactive) | > 100 µM (inactive) | > 100 µM (inactive) | > 100 µM (inactive) | > 100 µM (inactive) | > 100 µM (inactive) | > 100 µM (inactive) | > 100 µM (inactive) | > 100 µM (inactive) | > 100 µM (inactive) | > 100 µM (inactive) | > 100 µM (inactive) | > 100 µM (inactive) | > 100 µM (inactive) | > 100 µM (inactive) | > 100 µM (inactive) | > 100 µM (inactive) | > 100 µM (inactive) | > 100 µM (inactive) | > 100 µM (inactive)
4 | CCN(CC)CCC1CCCCN1CC(=O)N1c2ccccc2NC(=O)c2ccccc21 (stereo unspecified) | > 100 µM (inactive) | > 100 µM (inactive) | > 100 µM (inactive) | > 100 µM (inactive) | > 100 µM (inactive) | > 100 µM (inactive) | > 100 µM (inactive) | > 100 µM (inactive) | > 100 µM (inactive) | > 100 µM (inactive) |  | > 100 µM (inactive) | > 100 µM (inactive) | > 100 µM (inactive) | > 100 µM (inactive) | > 100 µM (inactive) | > 100 µM (inactive) | > 100 µM (inactive) | > 100 µM (inactive) | > 100 µM (inactive)
5 | Cc1[nH]c2ccccc2c1-c1cc(-c2cc(-c3c(C)[nH]c4ccccc34)nc(N)n2)nc(N)n1 | > 100 µM (inactive) | > 100 µM (inactive) | > 100 µM (inactive) |  | 14.9 µM (inactive) | > 100 µM (inactive) | > 100 µM (inactive) | > 100 µM (inactive) | > 100 µM (inactive) | > 100 µM (inactive) | > 100 µM (inactive) | 86.3 µM (inactive) | > 100 µM (inactive) | > 100 µM (inactive) | > 100 µM (inactive) | > 100 µM (inactive) | > 100 µM (inactive) | > 100 µM (inactive) | > 100 µM (inactive) | > 100 µM (inactive)
6 | Nc1ccc2c(O)cc(O)nc2n1 | > 100 µM (inactive) | > 100 µM (inactive) | > 100 µM (inactive) |  | > 100 µM (inactive) | > 100 µM (inactive) | > 100 µM (inactive) | > 100 µM (inactive) | > 100 µM (inactive) | > 100 µM (inactive) | > 100 µM (inactive) | > 100 µM (inactive) | > 100 µM (inactive) | > 100 µM (inactive) | > 100 µM (inactive) | 37.8 µM (inactive) | > 100 µM (inactive) | > 100 µM (inactive) | > 100 µM (inactive) | > 100 µM (inactive)
7 | O=c1c2cc([N+](=O)[O-])ccc2oc2nc3n(c(=O)c12)CCCS3 | > 100 µM (inactive) | > 100 µM (inactive) | > 100 µM (inactive) | > 100 µM (inactive) | > 100 µM (inactive) | > 100 µM (inactive) | > 100 µM (inactive) |  |  | > 100 µM (inactive) | > 100 µM (inactive) | > 100 µM (inactive) | 66.8 µM (inactive) | > 100 µM (inactive) | > 100 µM (inactive) | > 100 µM (inactive) | > 100 µM (inactive) | > 100 µM (inactive) | > 100 µM (inactive) | > 100 µM (inactive)
8 | COc1cc2c(c(OC)c1OC)-c1ccc(OC)c(=O)cc1[C@@H](NC(=O)c1ccccc1)CC2 | 58.3 µM (inactive) | < 0.0146 µM (active) | 0.0126 µM (active) | < 0.01 µM (active) | 0.449 µM (active) | < 0.01 µM (active) | 0.17 µM (active) | < 0.01 µM (active) | 0.0114 µM (active) | 0.0118 µM (active) | 0.0119 µM (active) | 0.155 µM (active) | 0.0184 µM (active) | 0.018 µM (active) | 0.0146 µM (active) | 0.016 µM (active) | < 0.01 µM (active) |  | < 0.0114 µM (active) | 0.012 µM (active)
9 | CCOP(=O)(CC1CC(O)(CNc2cc(Cl)nc(N)n2)C1)OCC (stereo unspecified) | 98.9 µM (inactive) | > 100 µM (inactive) | > 100 µM (inactive) | > 100 µM (inactive) | > 100 µM (inactive) | > 100 µM (inactive) | > 100 µM (inactive) | > 100 µM (inactive) | > 100 µM (inactive) |  | > 100 µM (inactive) | > 100 µM (inactive) | > 100 µM (inactive) | > 100 µM (inactive) | > 100 µM (inactive) | > 100 µM (inactive) | > 100 µM (inactive) | > 100 µM (inactive) | > 100 µM (inactive) | > 100 µM (inactive)
10 | O=C1CCCCCC1CC(Sc1ccccc1)Sc1ccccc1 (stereo unspecified) | 14.4 µM (inactive) | 72.3 µM (inactive) |  | 25.2 µM (inactive) | 88.5 µM (inactive) | > 100 µM (inactive) | > 100 µM (inactive) | 21 µM (inactive) | > 100 µM (inactive) | > 100 µM (inactive) | 98.2 µM (inactive) | 32.8 µM (inactive) | > 100 µM (inactive) | 39.8 µM (inactive) |  | > 100 µM (inactive) | 61.4 µM (inactive) | > 100 µM (inactive) | 46.7 µM (inactive) | > 100 µM (inactive)
11 | O=C(NCc1cccc2ccccc12)N/N=C\c1ccc(Cl)cc1 | > 100 µM (inactive) | 43.3 µM (inactive) | > 100 µM (inactive) | > 100 µM (inactive) | > 100 µM (inactive) | 9.82 µM (inactive) | > 100 µM (inactive) | > 100 µM (inactive) | > 100 µM (inactive) | 74.5 µM (inactive) | 88.3 µM (inactive) | > 100 µM (inactive) | > 100 µM (inactive) |  | > 100 µM (inactive) | > 100 µM (inactive) | > 100 µM (inactive) | > 100 µM (inactive) | > 100 µM (inactive) | > 100 µM (inactive)
12 | COC(=O)CCC(NC(=O)OC(C)(C)C)C(=O)NC(Cc1ccc(NC(=O)CCCC(C)=O)cc1)C(=O)NC(CCC(=O)OC)C(=O)OC (stereo unspecified) | > 100 µM (inactive) | > 100 µM (inactive) | > 100 µM (inactive) | > 100 µM (inactive) | > 100 µM (inactive) | > 100 µM (inactive) | > 100 µM (inactive) |  | > 100 µM (inactive) | > 100 µM (inactive) | > 100 µM (inactive) | > 100 µM (inactive) | > 100 µM (inactive) | > 100 µM (inactive) | > 100 µM (inactive) | > 100 µM (inactive) | > 100 µM (inactive) | > 100 µM (inactive) | > 100 µM (inactive) | > 100 µM (inactive)
13 | CCOC(=O)C1=C(C#N)S(=O)(=O)c2c(oc(C)c2C)N1 | > 100 µM (inactive) | > 100 µM (inactive) | > 100 µM (inactive) |  | > 100 µM (inactive) | > 100 µM (inactive) | > 100 µM (inactive) |  | > 100 µM (inactive) | > 100 µM (inactive) | > 100 µM (inactive) | > 100 µM (inactive) | > 100 µM (inactive) | > 100 µM (inactive) | > 100 µM (inactive) | > 100 µM (inactive) | > 100 µM (inactive) | > 100 µM (inactive) | > 100 µM (inactive) | > 100 µM (inactive)
14 | CC(=O)CC(=O)Nn1c(-c2cccs2)nc2ccc(I)cc2c1=O | > 62.1 µM (inactive) | > 54.2 µM (inactive) | > 60.1 µM (inactive) | > 46.8 µM (inactive) | > 46.9 µM (inactive) | > 100 µM (inactive) | > 43.9 µM (inactive) | > 66.5 µM (inactive) | > 100 µM (inactive) | > 66.8 µM (inactive) | > 52.7 µM (inactive) | > 100 µM (inactive) | > 65.9 µM (inactive) | > 64.3 µM (inactive) | > 49.8 µM (inactive) | > 52.6 µM (inactive) | > 51.4 µM (inactive) |  | > 65.9 µM (inactive) | > 56.6 µM (inactive)

Source: ChEMBL document CHEMBL1201862, “PubChem BioAssay data set” (2004)
